According to US20070248996A1, “Modulators of beta-amyloid peptide aggregation comprising D-amino acids” (Paraecis Pharmaceuticals, Inc., priority 1995, published 2007):
Where two headings read alike, the source gives them in different places.

Columns and labels:
[1] = target: Aβ1-40 (Homo sapiens, UniProt P05067); format: biochemical; settings: for ΔLag 5.0 μM: Table VI, 5.0 μM test compound; for ΔLag 3 μM: 3 μM test compound; for ΔLag 4 μM: 4 μM test compound
Source text: The nucleation assay is employed to determine the ability of test compounds to alter (e.g. inhibit) the early events in formation of β-AP fibers from monomeric β-AP. Characteristic of a nucleated polymerization mechanism, a lag time is observed prior to nucleation, after which the peptide rapidly forms fibers as reflected in a linear rise in turbidity. The time delay before polymerization of β-AP monomer can be quantified as well as the extent of formation of insoluble fiber by light scattering (turbidity). Polymerization reaches equilibrium when the maximum turbidity reaches a plateau The turbidity of a solution of natural β-AP in the absence or presence of various concentrations of a β-amyloid modulator compound is determined by measuring the apparent absorbance of the solution at 405 nm (A405 nm) over time. The threshold of sensitivity for the measurement of turbidity is in the range of 15-20 μM β-AP. […] This assay can be performed using stirring or shaking to accelerate polymerization, thereby increasing the speed of the assay. Moreover the assay can be adapted to a 96-well plate format to screen multiple compounds.
HFIP-solubilized peptide is sonicated in a waterbath sonicator for 5 min at highest setting, then evaporated to dryness under a stream of argon. The peptide film is resuspended in anhydrous dimethylsulfoxide (DMSO) at a concentration of 6.9 mg/ml (25× concentration), sonicated for 5 min as before, then filtered through a 0.2 micron nylon syringe filter (VWR cat. No.28196-050). Test compounds are dissolved in DMSO at a 100× concentration. […] Ten microliters of the mixture is then added to the bottom of a well of a Corning Costar ultra low binding 96-well plate (Coming Costar, Cambridge Mass.; cat. No. 2500). Ninety microliters of water is added to the well, the plate is shaken on a rotary shaken at a constant speed at room temperature for 30 seconds, an additional 100 μl of 2× PTL buffer (20 mM NaH2PO4, 300 mM NaCl, pH 7.4) is added to the well, the plate is reshaken for 30 seconds and a baseline (t=0) turbidity reading is taken by measuring the apparent absorbance at 405 nm using a Bio-Rad Model 450 Microplate Reader. The plate is then returned to the shaker and shaken continuously for 5 hours. Turbidity readings are taken at 15 minute intervals.
β-amyloid aggregation in the absence of any modulators results in enhanced turbidity of the natural β-AP solution (i.e., an increase in the apparent absorbance at 405 nm over time). […]

[2] = Brain uptake of tritium-labelled PPI-558 after subcutaneous injection; settings: male rats, single subcutaneous injection 4.6 mg/kg, 2 hours (FIG. 4)
Experimental: Male Sprague-Dawley rats (259-280 g) received a single subcutaneous injection in the nape of the neck (4.6 mg/kg at 1 ml/kg=4.6 mg/ml in 100% Sesame Oil). At various time points post administration (2, 8 and 24 hours; n=4/time point), the animlas were anesthetized. Trunk blood was taken to determine plasma levels of the parent compound and the left side of the brain was perfused with 1 ml of saline over 30 seconds via the left sommon carotid artery. The brain was rapidly removed and the left forebrain (perfused) was subjected to capillary depletion.

[3] = Safety profile for PPI-558, daily subcutaneous injection for 14 days; settings: female rats, 3 and 30 mg/kg s.c. daily for 14 days
Experimental: On day 15, animals were sacrificed 1 hour post administration.

[4] = Modulator compound stability in cerebrospinal fluid; settings: 75% Rhesus monkey CSF, 37° C., 24 hours, HPLC; compared with PPI-368 (FIG. 1)
Experimental: The stability of a modulator compound in cerebrospinal fluid (CSF) can be assayed in an in vitro assay as follows. […] All sample handling is carried out in a laminar flow hood and test solutions are maintained at 37° C. during the assay. […] Samples (at the 0 time point and the 24 hour time point) are analyzed at room temperature using reverse-phase HPLC. A microbore column is used to maximize sensitivity. The parameters for analytical HPLC are as follows:
Chromatographic analysis is performed using a Hewlett Packard 1090 series II HPLC. The column used for separation is a C4, 5 μm, 1×250 mm (Vydac #214TP51). The flow rate is 50 μL/min and the elution profile of the test compounds is monitored at 214, 230, 260 and 280 nm.

[5] = Table IV, hydrophobic modifying groups, 5 μM test compound
[6] = Table V, hydroxylated and oxygenated modifying groups, 5 μM test compound
[7] = Table I, 5 μM Aβ1-40, 2 μM test compound, ratio of lag time with compound to lag time of control
[8] = Table I, 5 μM Aβ1-40, 5 μM test compound, ratio of lag time to control
[9] = Table II, second series, different stock of Aβ1-40, 2 μM test compound
[10] = Table II, second series, different stock of Aβ1-40
[11] = Table II, second series, different stock of Aβ1-40, 5 μM test compound
[12] = Table III, modifying groups derived from bile acids, 5 μM test compound

Sequence of Aβ1-40 (P05067 672-711): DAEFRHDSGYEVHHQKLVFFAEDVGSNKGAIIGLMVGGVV

4-Hydroxybenzoyl-D-Leu-D-Val-D-Phe-D-Phe-D-Ala-NH2 [PPI-558]
ΔLag 5 μM ([1]; Table VIII, 5 μM test compound): 2.0
ratio of brain versus plasma levels [2]: almost twice
overt toxicity [3]: No overt toxicity was observed

CC(C)C[C@@H](NC(=O)CC[C@@H](C)[C@H]1CC[C@H]2[C@@H]3[C@H](O)C[C@@H]4C[C@H](O)CC[C@]4(C)[C@H]3C[C@H](O)[C@]12C)C(=O)N[C@@H](C(=O)N[C@H](Cc1ccccc1)C(=O)N[C@H](Cc1ccccc1)C(=O)N[C@H](C)C(=O)O)C(C)C [PPI-433, cholyl-D-Leu-D-Val-D-Phe-D-Phe-D-Ala-OH]
stability in cerebrospinal fluid [4]: significantly greater stability in CSF than the L-amino acid-based compound

Ac-d(LVFFA)-nh2 [PPI-501]
ΔLag 5 μM ([1]; Table IX, 5 μM test compound): 1.4

Acetyl-d(LV(IodoY)FA)-nh2 [PPI-506]
ΔLag 5.0 μM [1]: 1.0

Acetyl-d(LVYFA)-nh2 [PPI-505]
ΔLag 5.0 μM [1]: 1.0

Acetyl-d(VF)-PEA [PPI-495]
ΔLag 5 μM [1, 5]: 1.0

Benzoylpropanoyl-d(LVFF)-nh2 [PPI-489]
ΔLag 5 μM [1, 6]: 1.2

Butanoyl-d(LVFFA)-nh2 [PPI-525]
ΔLag 5 μM [1, 5]: 1.0

CA-LVYFA-cooh [PPI-399]
ΔLag 2 μM [1, 7]: 3.0
ΔLag 5 μM [1, 8]: 6

CA-d(AFFVL)-cooh [PPI-454]
ΔLag 2 μM [1, 7]: 4.0
ΔLag 5 μM [1, 8]: >12

CA-d(LV(IY)FA)-oh [PPI-462]
ΔLag 2 μM [1, 9]: 2.7
ΔLag 3 μM [1, 10]: >2.7
ΔLag 4 μM [1, 10]: >2.7
ΔLag 5 μM [1, 11]: >2.7

CA-d(LVF(IY)A)-oh [PPI-463]
ΔLag 2 μM [1, 9]: >2.7
ΔLag 3 μM [1, 10]: >2.7
ΔLag 4 μM [1, 10]: >2.7
ΔLag 5 μM [1, 11]: >2.7

CA-d(LVYFA)-oh [PPI-455]
ΔLag 2 μM [1, 9]: 1.8
ΔLag 3 μM [1, 10]: 2.0
ΔLag 4 μM [1, 10]: 2.3
ΔLag 5 μM [1, 11]: >2.7

Chenodeoxycholyl-LVFFA-oh [PPI-521]
ΔLag 5 μM [1, 12]: >2.3
ΔLag 5 μM ([1]; Table IX, 5 μM test compound): 3.6

Cholyl-LVFFA-oh [PPI-424]
ΔLag 5 μM [1, 12]: >6.0

D-3-Phenyllactyl-d(AFFVL)-nh2 [PPI-607]
ΔLag 5 μM ([1]; Table IX, 5 μM test compound): 3.1

D-3-Phenyllactyl-d(FFFVL)-nh2 [PPI-635]
ΔLag 5 μM ([1]; Table IX, 5 μM test compound): 2.5

D-3-Phenyllactyl-d(FFVL)-nh2 [PPI-612]
ΔLag 5 μM ([1]; Table IX, 5 μM test compound): 2.1

DL-3-(4-Hydroxyphenyl)Lactyl-d(LVFFA)-nh2 [PPI-599]
ΔLag 5 μM ([1]; Table IX, 5 μM test compound): 1.4

Dihphenylacetyl-d(LVFF)-nh2 [PPI-484]
ΔLag 5 μM [1, 5]: 1.3

Glycolyl-d(AFFLL)-nh2 [PPI-592]
ΔLag 5 μM ([1]; Table IX, 5 μM test compound): 1.8

Glycolyl-d(FFFVL)-nh2 [PPI-596]
ΔLag 5 μM ([1]; Table IX, 5 μM test compound): 3.6
ΔLag 5 μM [1, 6]: 3.6

Glycolyl-d(LVFFA)-nh2 [PPI-535]
ΔLag 5 μM ([1]; Table IX, 5 μM test compound): 1.3
ΔLag 5 μM [1, 6]: 1.4

H-d(A[homoPhe][homoPhe]VL)-nh2 [PPI-571]
ΔLag 5 μM ([1]; Table X, 5 μM test compound): >6

H-d(FFVL)-nh2 [PPI-602]
ΔLag 5 μM ([1]; Table X, 5 μM test compound): 1.6

H-d(LFFFL)-nh2 [PPI-638]
ΔLag 5 μM ([1]; Table X, 5 μM test compound): >6

H-d(LVFFL)-nh2 [PPI-655]
ΔLag 5 μM ([1]; Table X, 5 μM test compound): >6

Hydrocinnamoyl-d(FFFVL)-nh2 [PPI-636]
ΔLag 5 μM ([1]; Table IX, 5 μM test compound): 1.7
